Measurements reported in US20190282563A1, “Selective c-FLIP Inhibitors as Anticancer Agents” (Centre National de la Recherche Scientifique, priority 2016, published 2019).
Entries after “also recorded” stand apart in the source; their conditions may differ.

Experiments:
H1703-FLIP(L) cells [1] = assay: Cleavage of caspase-8, caspase-3 and PARP in H1703-FLIP(L) cells; format: cell-based, Human; details: H1703 cells overexpressing FLIP
Text: (§1) Reactivation of the Apoptotic Pathway by c-FLIP inhibitors combined with TRAIL: Cleavage of caspases is a marker of apoptosis pathway initiation. Thus, the present Inventors have studied the cleavage of caspase-8, of caspase-3 and of PARP (a caspase-3 substrate, which undergoes cleavage during apoptosis) in H1703-mock cells and in H1703-FLIP(L) cells, in the presence of TRAIL alone, in the presence of a c-FLIP inhibitor (molecules (1), (3), (4) and (9)), and of a combination of TRAIL and one of the c-FLIP inhibitors. The results obtained are presented on FIG. 4(A)-(B). […] However, no cleavage was observed when H1703-MOCK cells were treated with a c-FLIP inhibitor alone.

cFLIP/FADD interaction = biological target: T1, cFLIP/FADD interaction (Homo sapiens, UniProt O15519); assay: Pull down assay of FADD/c-FLIP interaction (MBP-trap column, Western blot); format: binding; details: c-FLIP(s) and FADD incubated 18 hours with molecule at different concentrations
T1 construct: made in house; host or cells: E. coli: Rosetta (pET24b, c-FLIP(s)) and DH5α (pMALC2, FADD)
Procedure: Transformation of Competent Bacteria. FLIP (s) and FADD genes were previously cloned and inserted in their respective plasmids pET24b and pMALC2, and provided as a kind gift from Pr. Richard Daniellou (ICOA, Orléans, France). Pet24b and Pmalc2 plasmids were mixed with their corresponding competent bacterial cells, Rosetta and DH5α cells respectively, and left on ice for 20 minutes. Heat-shocking steps were performed before adding LB medium and leaving cells to grow on 37° C. for 1 hour and then cells were spread on LB plates with appropriate antibiotics and incubated at 37° C. overnight.
Production of c-FLIP (s) and FADD proteins. Transformed competent cells were cultured in large amounts of LB growth at 37° C. and the expression of each protein was stimulated using 1M IPTG (Isopropyl β-D-1-thiogalactopyranoside) and cells were left to grow for 18 hours at 30° C. Cells were collected, centrifuged and resuspended in Tris/NaCl buffer (Tris 50 mM, NaCl 100 mM, pH 8.0) after which they were centrifuged at 6000 g, for 10 minutes at 4° C. Supernatant was removed and bacterial pellets were used for cell lysis and protein purification on Ni-NTA column and MBP-trap column for cFLIP(s) and FADD purification, respectively. The FLIP(s) is a His-tagged protein, and FADD is a MBP-tagged protein. The purified proteins were incubated with each molecule for 18 hours at +4° C. and then, the samples were passed again on MBP-trap columns.
Western Blot Analysis. The samples, purified and obtained after FADD/FLIP/compounds incubation, were run on 4-12% Bis-Tris polyacrylamide gels to evaluate the presence of FLIP and FADD bands.
Once purified, c-FLIP(s) and FADD were incubated for 18 hours with each one of the nine c-FLIP inhibitors at different concentrations. The samples were then passed on a MBP-trap column, which binds FADD (MBP-tagged protein). If cFLIP is still bound to FADD, then it is captured with FADD on the MBP column. Samples were then evaluated using a Western blot analysis by monitoring the disappearance of the c-FLIP band with increasing concentration of the c-FLIP inhibitor. Disappearance of the c-FLIP band in Western Blot corresponds to FADD-c-FLIP interaction inhibition.

H1703-Mock cells [2] = assay: Cleavage of caspase-8, caspase-3 and PARP in H1703-mock cells; format: cell-based, Human
Text: as §1

H1703-FLIP(L) cells [3] = assay: Annexin V-PE flow cytometry apoptosis test, H1703-FLIP(L) cells (TRAIL alone, molecule alone or combination); format: cell-based, Human; details: 18 hours; for sensitization to TRAIL-induced apoptosis (percentage of apoptosis, annexin V): molecule at its most suitable concentration combined with TRAIL 100 ng/mL
Procedure: (§2) Cell Culture. H1703 (Human non-small lung cancer cell line) cells were grown in RPMI 1640 (LONZA) culture media supplemented with 10% fetal bovine serum and puromycine antibiotic (2 μg/ml) from Sigma-Aldrich. The cells were kept in a humidified atmosphere in an incubator at 37° C. and 5% CO2. H1703 cells were a kind gift from O. Micheau (INSERM, Dijon, France).
(§3) Flow Cytometry Analysis. The apoptotic cell death was confirmed by flow cytometry (cytoFLEX, Backman Coulter). After treatment of cells with TRAIL alone, c-FLIP inhibitor alone, or co-admninistration TRAIL/c-FLIP inhibitor, the cells were collected, washed and re-suspended in 1× Annexin binding buffer. Annexin-V-PE was added to cells, and left 20 minutes at room temperature in the dark. Flow cytometric analysis was carried out in the final step.
(§4) Sensitivity of the H1703 cells to TRAIL: The first goal was to verify that the H1703 cells are sensitive to TRAIL. To do so, the cells were treated with TRAIL at a concentration of 100 ng/mL for 18 hours and then the cells were washed and incubated with Annexin V-PE to evaluate the apoptosis level using flow cytometry. […] So, the Inventors applied a range of concentrations for each molecule to determine the appropriate dose that has no toxic effect on the cells when administered alone.
Combination Treatment of TRAIL with each one of the 9 Identified Molecules: Following the identification of the best concentration for each compound, HE1703 cells were treated with TRAIL (100 ng/mL) alone or with one of the 9 identified molecules alone or with a combination of TRAIL and one of the 9 identified molecules for 18 hours. The percentage of apoptosis was measured by flow cytometry using an annexin V test, as described above. The results obtained are presented on FIGS. 2(A, B and C).

H1703-Mock cells [4] = assay: Annexin V-PE flow cytometry apoptosis test, H1703-Mock cells; format: cell-based, Human; details: TRAIL 100 ng/mL, 18 hours
Procedure: as §2, §3, §4

[5] = combination of TRAIL and c-FLIP inhibitor
[6] = TRAIL combined with c-FLIP inhibitor

## Cc1cc(/N=N/c2c(O)nc3ccccc3c2O)ccc1/N=N/c1ccc(C(=O)N(C)C)cc1 [Molecule (1)]
H1703-FLIP(L) cells [1]; c-FLIP inhibitor alone
  cleavage of caspase-8, caspase-3 and PARP: no cleavage observed
H1703-FLIP(L) cells [1]; [5]
  cleavage of caspase-8, caspase-3 and PARP: induce cleavage of caspase-8, caspase-3 and PARP
cFLIP/FADD interaction
  inhibition of the interaction between FADD and c-FLIP (disappearance of the c-FLIP band): inhibit the interaction between FADD and c-FLIP
H1703-Mock cells [2]; [6]
  cleavage of caspase-8, caspase-3 and PARP: cleavage of caspase-8, caspase-3 and PARP
H1703-Mock cells [2]; c-FLIP inhibitor alone
  cleavage of caspase-8, caspase-3 and PARP: no cleavage
H1703-FLIP(L) cells [3]
  sensitization to TRAIL-induced apoptosis (percentage of apoptosis, annexin V): most active

## N#Cc1cc(-c2ccccc2)[nH]c1-c1nccc2ccccc12 [Molecule (3)]
H1703-FLIP(L) cells [1]; c-FLIP inhibitor alone
  cleavage of caspase-8, caspase-3 and PARP: no cleavage observed
H1703-FLIP(L) cells [1]; [5]
  cleavage of caspase-8, caspase-3 and PARP: induce cleavage of caspase-8, caspase-3 and PARP
cFLIP/FADD interaction
  inhibition of the interaction between FADD and c-FLIP (disappearance of the c-FLIP band): inhibit the interaction between FADD and c-FLIP
H1703-Mock cells [2]; [6]
  cleavage of caspase-8, caspase-3 and PARP: cleavage of caspase-8, caspase-3 and PARP
H1703-Mock cells [2]; c-FLIP inhibitor alone
  cleavage of caspase-8, caspase-3 and PARP: no cleavage
H1703-FLIP(L) cells [3]
  sensitization to TRAIL-induced apoptosis (percentage of apoptosis, annexin V): most active

## Cc1c2cnccc2c(C)c2c1c1ccccc1n2CCOC(=O)c1ccccc1 [Molecule (4)]
H1703-FLIP(L) cells [1]; c-FLIP inhibitor alone
  cleavage of caspase-8, caspase-3 and PARP: no cleavage observed
H1703-FLIP(L) cells [1]; [5]
  cleavage of caspase-8, caspase-3 and PARP: induce cleavage of caspase-8, caspase-3 and PARP
cFLIP/FADD interaction
  inhibition of the interaction between FADD and c-FLIP (disappearance of the c-FLIP band): inhibit the interaction between FADD and c-FLIP
H1703-Mock cells [2]; [6]
  cleavage of caspase-8, caspase-3 and PARP: cleavage of caspase-8, caspase-3 and PARP
H1703-Mock cells [2]; c-FLIP inhibitor alone
  cleavage of caspase-8, caspase-3 and PARP: no cleavage
H1703-FLIP(L) cells [3]
  sensitization to TRAIL-induced apoptosis (percentage of apoptosis, annexin V): most active

## NS(=O)(=O)c1ccc(NC(=S)NC(=O)c2ccco2)cc1 [Molecule (6)]
cFLIP/FADD interaction
  inhibition of the interaction between FADD and c-FLIP (disappearance of the c-FLIP band): no effect

## CC1=C(C)Cc2c(OC(=O)c3ccccc3)ccc(OC(=O)c3ccccc3)c2C1 [Molecule (7)]
cFLIP/FADD interaction
  inhibition of the interaction between FADD and c-FLIP (disappearance of the c-FLIP band): inhibit the interaction between FADD and c-FLIP

## Cc1cccc(Nc2sc(C(=O)c3cc4cc(Cl)ccc4o3)c(N)c2C#N)c1 [Molecule (9)]
H1703-FLIP(L) cells [1]; c-FLIP inhibitor alone
  cleavage of caspase-8, caspase-3 and PARP: no cleavage observed
H1703-FLIP(L) cells [1]; [5]
  cleavage of caspase-8, caspase-3 and PARP: induce cleavage of caspase-8, caspase-3 and PARP
cFLIP/FADD interaction
  inhibition of the interaction between FADD and c-FLIP (disappearance of the c-FLIP band): inhibit the interaction between FADD and c-FLIP
H1703-Mock cells [2]; [6]
  cleavage of caspase-8, caspase-3 and PARP: cleavage of caspase-8, caspase-3 and PARP
H1703-Mock cells [2]; c-FLIP inhibitor alone
  cleavage of caspase-8, caspase-3 and PARP: no cleavage
H1703-FLIP(L) cells [3]
  sensitization to TRAIL-induced apoptosis (percentage of apoptosis, annexin V): most active

B1: TRAIL: death ligand TRAIL; KillerTRAIL (human recombinant BULK) purchased from Alexis Biochemicals (protein, UniProt P50591 39-281, looked up)
extracellular domain: TNELKQMQDKYSKSGIACFLKEDDSYWDPNDEESMNSPCWQVKWQLRQLVRKMILRTSEETISTVQEKQQNISPLVRERGPQRVAAHITGTRGRSNTLSSPNSKNEKALGRKINSWESSRSGHSFLSNLHLRNGELVIHEKGFYYIYSQTYFRFQEEIKENTKNDKQMVQYIYKYTSYPDPILLMKSARNSCWSKDAEYGLYSIYQGGIFELKENDRIFVSVTNEHLIDMDHEASFFGAFLVG
modifications: extracellular domain KillerTRAIL recombinant, Alexis
notes: death ligand TRAIL; KillerTRAIL (human recombinant BULK) purchased from Alexis Biochemicals
H1703-FLIP(L) cells [1]; TRAIL alone
  cleavage of caspase-8, caspase-3 and PARP: no cleavage observed
H1703-Mock cells [4]
  level of apoptosis: more than 60%
H1703-Mock cells [2]; TRAIL alone
  cleavage of caspase-8, caspase-3 and PARP: cleavage of caspase-8, caspase-3 and PARP
H1703-FLIP(L) cells [3]; TRAIL 100 ng/mL, H1703-FLIP(L) cells overexpressing c-FLIP
  effect of TRAIL alone on apoptosis: resistant to TRAIL; also recorded: no effect
